21 compounds from patent US8765750B2, “Piperazine compound having a PGDS inhibitory effect” (Taiho Pharmaceutical Co., Ltd., priority 2010, dated 2014) can be followed below.

The target of one test is human H-PGDS (Homo sapiens (Human), UniProt O60760). Description: Hematopoietic prostaglandin D synthase (H-PGDS) inhibiting action. The conditions noted are these: for inhibition at 0.1 µM / Inhibition Rate (%) 0.1 μM: compound at 0.1 μM, relative to the control group, human H-PGDS, [14C] prostaglandin H2 10 μM; for inhibition at 0.1 µM: read-out: Inhibition Rate (%) 0.1 μM; for IC50: inhibition concentration at 50% relative to H-PGDS, read-out: IC50. It counts as biochemical. The procedure:
The test was carried out according to the method of Urade, Y. et al. (J. Biol. Chem., 262, 3820-3825, (1987)). More specifically, the reaction mixture (49 μL) containing 100 mM Tris-HCl (pH 8.0), 1 mM reduced glutathione, 0.1 mg/mL γ-globulin, and human H-PGDS (q.s.), and a compound (final concentration: 0.01-100 μM) was preincubated at 25° C. for 5 minutes. A DMSO solution (final concentration: 1%) was added to the solvent control group. Subsequently, 1 μL of [^14C] prostaglandin H2 (final concentration: 10 μM) was added to start the reaction. One minute after the start of the reaction, 250 μL of a reaction stop solution (diethylether/methanol/1 M citric acid (30/4/1) at a temperature of −20° C. was added to stop the reaction. After the reaction was stopped, 50 μL of the upper-layer portion (organic solvent layer) was applied to a TLC plate and developed at −20° C. for 45 minutes (developing solvent: diethylether/methanol/acetic acid (90/2/1)). After drying the TLC plate, the TLC plate was exposed to an imaging plate for 1 to 24 hours, and the radioactivity corresponding to prostaglandin D2 (PGD2) was analyzed using an image analyzer (produced by Fujifilm Corporation). […]

In test [1] the test system is PGD2 production in the nasal cavities of guinea pigs with antigen-induced rhinitis. Nature of the test: PGD2 production inhibiting action in the nasal cavities of guinea pigs with antigen-induced rhinitis. In kind it is in vivo. The conditions noted are these: 30 mg/kg orally 1 hour before induction of rhinitis reaction; washing 30 minutes after induction; * = significance level below 0.05 vs control group. How it is done:
A physiological saline solution containing 1 mg/mL of ovalbumin was subcutaneously injected into the back of 5-week-old male Std: Hartley guinea pigs in an amount of 1 mL/body for active sensitization (initial sensitization). One week and two weeks after initial sensitization, 20 μL of a physiological saline solution containing 10 mg/mL of ovalbumin was instilled into each nasal cavity using a micropipette (sensitization by nasal administration). Three weeks after initial sensitization, 20 μL of a physiological saline solution containing 10 mg/mL of ovalbumin was instilled into each nasal cavity using a micropipette to induce a rhinitis reaction.
30 minutes after the induction of a rhinitis reaction, the nasal cavities were washed under pentobarbital sodium anesthesia. A nasal cavity washing liquid (phosphate buffered saline containing 3 mM of EDTA and 10 μM of indomethacin) was flushed using a Peristaltic Pump (Gilson, Inc.) in the direction from the trachea to the upper respiratory tract at a flow rate of 1 mL/min, and the liquid flowing out from the nasal cavities was collected for 1 minute. The collected liquid was centrifuged to separate the supernatant as the nasal cavity washing fluid. The concentration of PGD2 in the nasal cavity washing fluid was determined using an EIA kit (Prostaglandin D2-MOX EIA kit, Cayman Chemical).
The test compound (30 mg/kg) was orally administered 1 hour before induction of a rhinitis reaction. A formula to calculate the rate of decrease in PGD2 in the nasal cavity washing fluid is shown below. Rate (%) of decrease in PGD2 in the nasal cavity washing fluid={(PGD2 concentration in the control group−PGD2 concentration in the compound-administered group)÷(PGD2 concentration in the control group−PGD2 concentration in the normal group)}×100
8 or more cases were obtained from each group to determine whether expression of the PGD2 production inhibiting action occurred, and the PGD2 concentration in the nasal cavity washing fluid was compared between the control group and each compound-administered group. […] When the significance level was below 0.05, the action was considered to be present and indicated by a symbol (*) in the table. Reference Example 18, known as an H-PGDS inhibitor, was used as a positive control substance.

human H-PGDS, sequence (O60760 whole entry): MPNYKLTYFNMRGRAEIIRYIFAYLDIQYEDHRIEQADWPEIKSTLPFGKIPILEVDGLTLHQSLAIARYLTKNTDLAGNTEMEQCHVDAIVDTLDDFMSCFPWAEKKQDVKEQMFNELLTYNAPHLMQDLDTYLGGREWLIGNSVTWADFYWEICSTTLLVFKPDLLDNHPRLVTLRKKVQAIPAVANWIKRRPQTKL

As a reminder, the inhibition is how much of the control response was suppressed. By IC50 is commonly meant the midpoint of a concentration-inhibition curve. Consider `Cc1nc(C)n(CCCc2ccc(N3CCC(NC(=O)N4CCN(C(=O)c5cccn5C)CC4)CC3)cc2)n1` [Compound 9, 4-((1-methylpyrrol-2-yl)-carbonyl)-N-(1-(4-(3-(3,5-dimethyl-1,2,4-triazol-1-yl)-propyl)-phenyl)-piperidin-4-yl)-1-piperazinecarboxamide], for which, at human H-PGDS, the inhibition at 0.1 µM stood at 54.2% and the half-inhibitory concentration (IC50) is 61 nM.

As to `COc1ccc2nc(NC(=O)N3CCN(C(=O)c4cccc(F)c4)CC3)sc2c1` [Reference Example 15, 4-(3-fluorobenzoyl)-piperazine-1-carboxylic acid-(6-methoxybenzothiazol-2-yl)-amide, reference compound], the inhibition at 0.1 µM at human H-PGDS turned out to be 20.9%. Further, in test [1], the “Rate (%) of decrease in PGD2 in the nasal cavity washing fluid” value (“Rate (%) of decrease in PGD2” for short) was −27.4%.

Consider `O=C(NCCN1CCOCC1)c1ccc(N2CCC(NC(=O)N3CCN(C(=O)c4cccs4)CC3)CC2)cc1` [Reference Example 4, 4-((thiophen-2-yl)-carbonyl)-N-(1-(4-(2-morpholinoethylcarbamoyl)-phenyl)-piperidin-4-yl)-1-piperazinecarboxamide, reference compound], for which, on human H-PGDS, the inhibition at 0.1 µM was determined as 29.2%.

In the case of `Cn1cccc1C(=O)N1CCN(C(=O)NC2CCN(c3ccc(C(=O)N4CCOCC4)cc3)CC2)CC1` [Compound 4, 4-((1-methylpyrrol-2-yl)-carbonyl)-N-(1-(4-(4-morpholinylcarbonyl)phenyl)-piperidin-4-yl)-1-piperazinecarboxamide], on human H-PGDS, the inhibition at 0.1 µM is 69.8% and the IC50 is 31 nM.

With “4-(4-(4-((1-methylpyrrol-2-yl)-carbonyl)-1-piperazinecarbamoyl)piperidin-1-yl)-benzoic acid [Compound 1]”, at human H-PGDS, the “Inhibition Rate (%) 0.1 μM” value was found to be 57.7% and the IC50 stood at 67 nM.

With `CCn1cccc1C(=O)N1CCN(C(=O)NC2CCN(c3ccc(C(=O)NCCN4CCOCC4)cc3)CC2)CC1` [Compound 15, 4-((1-ethylpyrrol-2-yl)-carbonyl)-N-(1-(4-(2-morpholinoethylcarbamoyl)phenyl)-piperidin-4-yl)-1-piperazinecarboxamide], at human H-PGDS, the inhibition at 0.1 µM worked out at 69.9% and the half-maximal inhibitory concentration (IC50) amounted to 39 nM.

As to `CCn1cccc1C(=O)N1CCN(C(=O)NC2CCN(c3ccc(CCn4ccnn4)cc3)CC2)CC1` [Compound 16, 4-((1-ethylpyrrol-2-yl)-carbonyl)-N-(1-(4-(2-(1,2,3-triazol-1-yl)-ethyl)-phenyl)-piperidin-4-yl)-1-piperazinecarboxamide], the inhibition at 0.1 µM on human H-PGDS was 68.4%.

With `O=C(Nc1nc2ccc(Cl)cc2s1)N1CCN(C(=O)c2cccc(F)c2)CC1` [Reference Example 16, 4-(3-fluorobenzoyl)-piperazine-1-carboxylic acid-(6-chlorobenzothiazol-2-yl)-amide, reference compound], the inhibition at 0.1 µM at human H-PGDS worked out at 33.8%. For the same compound, in test [1], the “Rate (%) of decrease in PGD2” value was −38.1%.

As to `Cn1cccc1C(=O)N1CCN(C(=O)NC2CCN(c3ccc(C(=O)N4CCCC4)cc3)CC2)CC1` [Compound 6, 4-((1-methylpyrrol-2-yl)-carbonyl)-N-(1-(4-(1-pyrrolidinylcarbonyl)phenyl)-piperidin-4-yl)-1-piperazinecarboxamide], on human H-PGDS, the inhibition at 0.1 µM was 63% and the concentration for half-maximal inhibition (IC50) stood at 52 nM.

For the compound `Cn1cccc1C(=O)N1CCN(C(=O)NC2CCN(c3ccc(CCn4ccnn4)cc3)CC2)CC1` [Compound 7, 4-((1-methylpyrrol-2-yl)-carbonyl)-N-(1-(4-(2-(1,2,3-triazol-1-yl)-ethyl)-phenyl)-piperidin-4-yl)-1-piperazinecarboxamide], on human H-PGDS, the inhibition at 0.1 µM was 75% and the IC50 worked out at 15 nM.

With `Cn1cccc1C(=O)N1CCN(C(=O)NC2CCN(c3ccc(C=CC(=O)N4CCOCC4)cc3)CC2)CC1` [Compound 11, 4-((1-methylpyrrol-2-yl)-carbonyl)-N-(1-(4-(3-morpholino-3-oxopropen-1-yl)-phenyl)-piperidin-4-yl)-1-piperazinecarboxamide], at human H-PGDS, the inhibition at 0.1 µM is 66.7%.

Regarding `Cn1cccc1C(=O)N1CCN(C(=O)NC2CCN(c3ccc(C(=O)N4CCCCC4)cc3)CC2)CC1` [Compound 5, 4-((1-methylpyrrol-2-yl)-carbonyl)-N-(1-(4-(1-piperidinylcarbonyl)phenyl)-piperidin-4-yl)-1-piperazinecarboxamide], on human H-PGDS, the inhibition at 0.1 µM turned out to be 67.6% and the half-maximal inhibitory concentration (IC50) amounted to 41 nM. Moreover, in test [1], the “Rate (%) of decrease in PGD2” value was 88.0* %.

`Cn1cccc1C(=O)N1CCN(C(=O)NC2CCN(c3ccc(C(=O)N4CCOCC4)cn3)CC2)CC1` [Compound 14, 4-((1-methylpyrrol-2-yl)-carbonyl)-N-(1-(5-(4-morpholinylcarbonyl)pyridin-2-yl)-piperidin-4-yl)-1-piperazinecarboxamide]: on human H-PGDS, the inhibition at 0.1 µM stood at 57.2%.

In the case of `CON(C)C(=O)c1[nH]c(C)c(-c2nc3ccc(C(=O)c4ccccc4)cc3[nH]2)c1C` [Reference Example 18], in test [1], the “Rate (%) of decrease in PGD2” value was 77.0* %.

Consider `Cn1cccc1C(=O)N1CCN(C(=O)NC2CCN(c3ccc(CCCn4cncn4)cc3)CC2)CC1` [Compound 8, 4-((1-methylpyrrol-2-yl)-carbonyl)-N-(1-(4-(3-(1,2,4-triazol-1-yl)-propyl)-phenyl)-piperidin-4-yl)-1-piperazinecarboxamide], for which, at human H-PGDS, the inhibition at 0.1 µM worked out at 60.6%.

Regarding `Cn1cccc1C(=O)N1CCN(C(=O)NC2CCN(c3ccc(CCC(=O)N4CCOCC4)cc3)CC2)CC1` [Compound 12, 4-((1-methylpyrrol-2-yl)-carbonyl)-N-(1-(4-(3-morpholino-3-oxopropyl)-phenyl)-piperidin-4-yl)-1-piperazinecarboxamide], at human H-PGDS, the inhibition at 0.1 µM was found to be 53.6%.

On to `Cn1cccc1C(=O)N1CCN(C(=O)NC2CCN(c3ccc(C(=O)NCCN4CCOCC4)cc3)CC2)CC1` [Compound 3, 4-((1-methylpyrrol-2-yl)-carbonyl)-N-(1-(4-(2-morpholinoethylcarbamoyl)-phenyl)-piperidin-4-yl)-1-piperazinecarboxamide], for which, on human H-PGDS, the inhibition at 0.1 µM came to 69.1% and the IC50 came out at 27 nM.

Take `O=C(NCCN1CCOCC1)c1ccc(N2CCC(NC(=O)N3CCN(C(=O)c4ccccc4)CC3)CC2)cc1` [Reference Example 11, 4-benzoyl-N-(1-(4-(2-morpholinoethylcarbamoyl)-phenyl)-piperidin-4-yl)-1-piperazinecarboxamide, reference compound]: the inhibition at 0.1 µM at human H-PGDS was determined as 30%.

Turning to `Cn1cccc1C(=O)N1CCN(C(=O)NC2CCN(c3ccc(C(=O)NCc4cccnc4)cc3)CC2)CC1` [Compound 2, 4-((1-methylpyrrol-2-yl)-carbonyl)-N-(1-(4-(pyridin-3-ylmethylcarbamoyl)phenyl)-piperidin-4-yl)-1-piperazinecarboxamide], at human H-PGDS, the inhibition at 0.1 µM was 55.2%.

As for `Cn1cccc1C(=O)N1CCN(C(=O)C2CCN(c3ccc(C(=O)O)cn3)CC2)CC1` [Compound 13, 6-(4-(4-((1-methylpyrrol-2-yl)-carbonyl)-1-piperazinecarbamoyl)-piperidin-1-yl)-nicotinic acid], at human H-PGDS, the “Inhibition Rate (%) 0.1 μM” value came to 52.8%.

Consider `Cn1cccc1C(=O)N1CCN(C(=O)NC2CCN(c3ccc(CCCn4ccnn4)cc3)CC2)CC1` [Compound 10, 4-((1-methylpyrrol-2-yl)-carbonyl)-N-(1-(4-(3-(1,2,3-triazol-1-yl)-propyl)-phenyl)-piperidin-4-yl)-1-piperazinecarboxamide], for which, on human H-PGDS, the inhibition at 0.1 µM stood at 74.8% and the 50% inhibitory concentration (IC50) was 27 nM.
